According to paper PMC6273954, “Antileishmanial Activity and Structure-Activity Relationship of Triazolic Compounds Derived from the Neolignans Grandisin, Veraguensin, and Machilin G” (Molecules, 2016):
≈ marks a conversion by molar mass, not a printed value. Where two headings read alike, the source gives them in different places.

Experiments:
[1] = system: J774.A1 cells; assay: Cytotoxicity assay (sulforhodamine B); type: cell-based, murine; conditions: for SI (selectivity index): IC50 on mammalian cells/IC50 on intracellular amastigotes; for IC50: Mus musculus, J774.A1, murine macrophages, 48 h, sulforhodamine B; for cytotoxicity on mammalian cells: J774.A1 macrophages
Experimental: Amphotericin B (Sigma-Aldrich®) was used as the reference drug (0.025–25 µg·mL^−1). Cell growth was evaluated according to Skehan et al. using the sulforhodamine B assay. Dimethyl sulfoxide (DMSO, Vetec®, Rio de Janeiro, Brazil) was used as negative control at the concentration used to solubilize the highest concentration of compounds. IC50 was calculated by nonlinear regression curve. Selectivity index was calculated according to Medeiros et al..

[2] = system: L. amazonensis infected macrophages; assay: Nitric oxide production by infected and treated peritoneal cells (Griess); type: cell-based, BALB/c mice
Experimental: To evaluate the nitric oxide production (NO) by infected and treated peritoneal cells, 50 µL of culture supernatant from the antileishmanial assay were collected and incubated with equal volume of Griess reagent (1% sulfanilamide /0.1% naphthalene diamine in 5% phosphoric acid) for 10 min at room temperature. According to Ding et al., the absorbance was determined at 540 nm and converted to NO2^− (µM) by comparing to a standard curve of known concentrations of sodium nitrite (1–10 µM) in RPMI medium (Sigma-Aldrich®).

[3] = system: L. (L.) amazonensis intracellular amastigotes; assay: In vitro antileishmanial activity on intracellular amastigotes in peritoneal macrophages; type: cell-based, Leishmania (Leishmania) amazonensis; design: key to activity class against intracellular amastigotes: active (<20 µM); moderately active (20–50 µM); potentially inactive (>50 µM); conditions: for IC50: Leishmania amazonensis, Peritoneal macrophage; for effect on infection index / concentration from which infection index was significantly decreased: versus untreated cells
Experimental: In vitro antileishmanial activity was evaluated on peritoneal macrophages infected with. L. (L.) amazonensis intracellular amastigotes. Parasites (IFLA/BR/1967/PH8 strain) were routinely isolated from BALB/c mice and maintained as promastigotes at 25 °C in Schneider's Insect Medium (Sigma-Aldrich®, St. Louis, MO, USA) supplemented with 20% fetal calf serum (FCS-Cultilab® Campinas, Brazil) and 140 μg·mL^-1 gentamicin (Sigma-Aldrich®). Macrophages were obtained from peritoneal wash of BALB/c mice after euthanasia. 10 mL of RPMI 1640 (Sigma-Aldrich®) supplemented with 2% L-glutamine, 2.8% bicarbonate buffer, 100 U·mL^-1 penicillin and […] streptomycin were injected into the peritoneal cavity. After massage area, liquid was aspirated and transferred to tubes on ice. Peritoneal cells were quantified in Neubauer chamber after cellular exclusion with Trypan Blue staining (Sigma-Aldrich®). Peritoneal cells (1 × 10^5 cells/well) were added to 24-well plates containing circular coverslips. Plates were incubated for one hour at 37 °C/5% CO2 to allow cell adhesion and then 1 × 10^6 L. (L.) amazonensis promastigotes were added to each well. Plates were incubated at 35 °C/5% CO2 for four hours and then cells were treated for 24 h with synthetic compounds 4-19 (6.25-50 μg·mL^-1). Amphotericin B (Sigma-Aldrich®) was used as the reference drug (0.25 to 2 μg·mL^-1) and untreated cells were used as negative control. Coverslips were processed as described by Rizk et al.. The overall number of amastigotes was determined by counting 100 cells in six replicates. The half maximal inhibitory concentration (IC50) was calculated using a nonlinear regression curve. Infection index was obtained as described by […] et al..

[4] = system: L. (L.) amazonensis promastigotes; conditions: cited from earlier work
[5] = system: L. donovani promastigote forms; design: method as in PMID 18688887; conditions: cited from earlier work
[6] = 24 h after treatment, compared to untreated infected cells (control)
[7] = at the highest concentration(s) tested, compared to control
[8] = in Mus musculus, infected BALB/c peritoneal macrophages, treated 24 h, read-out: Intracellular Amastigotes IC50
[9] = classified by IC50 according to Upegui et al.
[10] = at the lowest concentrations tested, compared to control
[11] = highest reduction reached / at the highest concentration, 24 h after treatment
[12] = 24 h, classified by IC50 according to Upegui et al., read-out: activity class against intracellular amastigotes

Row | SMILES | SI (selectivity index) [1] | IC50 [1] [µM] | nitric oxide (NO) production [2, 6] | IC50 [3, 8] [µM] | activity class against intracellular amastigotes [3, 9] | IC50 [3, 12] [µM] | other results
1 | COc1ccc(-c2cn(-c3ccc4c(c3)OCO4)nn2)cc1 [Compound 12] | 6.5 | 96.5 | increase in NO production | 14.8 | active | – | nitric oxide (NO) production [2, 7]: increase of NO production
2 | COc1ccc(-c2cn(-c3cc(OC)c(OC)c(OC)c3)nn2)cc1OC [Compound 14] | 14.1 | 79.1 | induced nitric oxide production | 5.6 | active | – | cytotoxicity on mammalian cells [1]: low cytotoxicity on mammalian cells; nitric oxide (NO) production [2, 10]: significantly induced NO production; effect on infection index ([3]; 24 h after treatment): reduced the infection index at all concentrations tested; reduction of infection index [3, 11]: 86.4%
3 | c1cc2c(cc1-c1cn(-c3ccc4c(c3)OCO4)nn1)OCO2 [Compound 7] | 4.2 | 86.2 | – | 20.4 | – | 20 to 50 | –
4 | COc1ccc(-c2cn(-c3ccc4c(c3)OCO4)nn2)cc1OC [Compound 16] | >23.5 | > 768 | significantly induce NO production | 32.7 | – | 20 to 50 | –
5 | COc1ccc(-c2cn(-c3ccc(OC)cc3)nn2)cc1 [Compound 4] | 66.9 | 877 | – | 13.1 | active | – | nitric oxide (NO) production [2, 7]: increase of NO production
6 | COc1ccc(-c2cn(-c3ccc(OC)c(OC)c3)nn2)cc1OC [Compound 5] | 3.6 | 76.4 | – | 21.3 | – | 20 to 50 | nitric oxide (NO) production ([2]; at 25 µg·mL−1, compared to control): lower than control; concentration from which infection index was significantly decreased ([3]; 24 h after treatment): 12.5 µg/mL
7 | COc1cccc2c1C(=O)c1c(O)c3c(c(O)c1C2=O)C[C@@](O)(C(=O)CO)C[C@@H]3O[C@H]1C[C@H](N)[C@H](O)[C@H](C)O1 [Doxorubicin, reference compound] | – | 0.5 | – | – | – | – | –
8 | COc1ccc(-c2cn(-c3ccc(OC)c(OC)c3)nn2)cc1 [Compound 8] | 4.9 | 79.2 | – | 16 | active | – | –
9 | C[C@@H]1[C@H](O)[C@@H](C)/C=C/C=C/C=C/C=C/C=C/C=C/C=C/[C@H](O[C@@H]2O[C@H](C)[C@@H](O)[C@H](N)[C@@H]2O)C[C@@H]2O[C@](O)(C[C@@H](O)C[C@@H](O)[C@H](O)CC[C@@H](O)C[C@@H](O)CC(=O)O[C@H]1C)C[C@H](O)[C@H]2C(=O)O [Amphotericin B, reference compound] | 3.1 | 2.2 | – | 0.7 | – | – | –
10 | COc1cc([C@@H]2O[C@@H](c3cc(OC)c(OC)c(OC)c3)[C@H](C)[C@H]2C)cc(OC)c1OC [grandisin] | – | – | – | – | – | – | IC50 on L. (L.) amazonensis promastigotes [4]: 42.4 µg/mL (≈ 98 µM); IC50 ([4]; read-out: IC50 on L. (L.) amazonensis promastigotes): 98 µM
11 | COc1ccc(-n2cc(-c3cc(OC)c(OC)c(OC)c3)nn2)cc1OC [Compound 15] | 2.6 | 76.9 | – | 29.2 | – | 20 to 50 | –
12 | COc1ccc(-n2cc(-c3ccc(OC)c(OC)c3)nn2)cc1 [Compound 9] | 1.2 | 22.6 | – | 18.3 | active | – | –
13 | COc1ccc([C@H]2O[C@@H](c3ccc(OC)c(OC)c3)[C@H](C)[C@H]2C)cc1OC [veraguensin] | – | – | – | – | – | – | IC50 [5]: 48.3 µM; activity on L. donovani promastigote forms [5]: 18 µg/mL
14 | COc1cc(-c2cn(-c3cc(OC)c(OC)c(OC)c3)nn2)cc(OC)c1OC [Compound 6] | >66.2 | > 623 | increased production of nitric oxide | 9.4 | active | – | activity on promastigote forms [4]: inactive on promastigote forms; concentration from which infection index was significantly decreased ([3]; 24 h after treatment): 6.25 µg/mL; reduction of infection index ([3]; at 50 µg·mL−1, 24 h after treatment): 98.6%
15 | COc1ccc(-n2cc(-c3cc(OC)c(OC)c(OC)c3)nn2)cc1 [Compound 11] | 4.1 | 67.5 | – | 16.5 | active | – | nitric oxide (NO) production [2, 7]: higher than control; nitric oxide (NO) production [2, 10]: lower than untreated cells
16 | COc1cc(-c2cn(-c3ccc4c(c3)OCO4)nn2)cc(OC)c1OC [Compound 18] | 2.2 | 66.9 | did not induce a significant production of NO | 29.8 | – | 20 to 50 | reduction of infection index [3, 11]: 92.1%
17 | COc1ccc(-n2cc(-c3ccc4c(c3)OCO4)nn2)cc1OC [Compound 17] | 0.3 | 9.2 | – | 29.9 | – | 20 to 50 | cytotoxicity on mammalian cells [1]: toxic for the macrophages
18 | COc1cc(-n2cc(-c3ccc4c(c3)OCO4)nn2)cc(OC)c1OC [Compound 19] | 10.6 | 46.9 | induced nitric oxide production | 4.4 | active | – | IC50 ([4]; read-out: IC50 against L. (L.) amazonensis promastigote forms): 7.2 µM; cytotoxicity on mammalian cells [1]: low cytotoxicity on mammalian cells; nitric oxide (NO) production [2, 7]: twice as high than control; effect on infection index ([3]; 24 h after treatment): significantly reduced the infection index
19 | COc1ccc(-c2cn(-c3cc(OC)c(OC)c(OC)c3)nn2)cc1 [Compound 10] | 3.9 | 65.4 | – | 16.8 | active | – | –
20 | COc1ccc(-n2cc(-c3ccc4c(c3)OCO4)nn2)cc1 [Compound 13] | 2.6 | 135 | increase in NO production | 50.7 | did not show potential activity | – | –
